{"source": "ChEMBL document CHEMBL1144001", "about": "“Synthesis and GABA(A) receptor activity of oxygen-bridged neurosteroid analogs” (Bioorg Med Chem, 2008)", "data": [{"assay": "Displacement of [3H]TBOB from GABAA receptor in Sprague-Dawley rat cerebral cortex", "format": "tissue-based", "units": {"IC50": "nM"}, "values": [{"molecule": "CC(=O)[C@H]1CC[C@H]2[C@@H]3CC[C@@H]4C[C@H](O)C[C@@H]5O[C@H](C[C@]12C)[C@@H]3[C@]45C", "IC50": 420}, {"molecule": "CC(=O)[C@H]1CC[C@H]2[C@@H]3CCC4=C[C@H](O)CC[C@@]45CO[C@@H](C[C@]12C)[C@@H]35", "IC50": 518}, {"molecule": "CC(=O)[C@H]1CC[C@H]2[C@@H]3CC[C@H]4C[C@H](O)C[C@H]5O[C@H](C[C@]12C)[C@@H]3[C@]45C", "IC50": 741}, {"molecule": "CC(=O)[C@H]1CC[C@H]2[C@@H]3CC[C@H]4C[C@H](O)CC[C@]4(C)[C@H]3CC[C@]12C", "note": "[BREXANOLONE]", "IC50": 329}, {"molecule": "CC(=O)[C@H]1CC[C@H]2[C@@H]3CC[C@@H]4C[C@H](O)CC[C@]4(C)[C@H]3CC[C@]12C", "note": "[ELTANOLONE]", "IC50": 830}]}]}
